According to US8455534B2, “Estrogen receptor modulators and uses thereof” (Aragon Pharmaceuticals, Inc., priority 2010, dated 2013):

Legend:
ER-α = molecular target: T1, ER-α (Homo sapiens, UniProt P03372); assay: Breast Cancer Cell ER-α In Cell Western Assay (SP1); format: cell-based; settings: MCF-7 cells, SP1 antibody, 4 or 24 hr post compound addition; for Emax: MCF7, read-out: ER-α In Cell Western Assay (SP1) Max Response; for DC50: read-out: ER-α In Cell Western Assay (SP1) IC50
T1 sequence (P03372 1-595): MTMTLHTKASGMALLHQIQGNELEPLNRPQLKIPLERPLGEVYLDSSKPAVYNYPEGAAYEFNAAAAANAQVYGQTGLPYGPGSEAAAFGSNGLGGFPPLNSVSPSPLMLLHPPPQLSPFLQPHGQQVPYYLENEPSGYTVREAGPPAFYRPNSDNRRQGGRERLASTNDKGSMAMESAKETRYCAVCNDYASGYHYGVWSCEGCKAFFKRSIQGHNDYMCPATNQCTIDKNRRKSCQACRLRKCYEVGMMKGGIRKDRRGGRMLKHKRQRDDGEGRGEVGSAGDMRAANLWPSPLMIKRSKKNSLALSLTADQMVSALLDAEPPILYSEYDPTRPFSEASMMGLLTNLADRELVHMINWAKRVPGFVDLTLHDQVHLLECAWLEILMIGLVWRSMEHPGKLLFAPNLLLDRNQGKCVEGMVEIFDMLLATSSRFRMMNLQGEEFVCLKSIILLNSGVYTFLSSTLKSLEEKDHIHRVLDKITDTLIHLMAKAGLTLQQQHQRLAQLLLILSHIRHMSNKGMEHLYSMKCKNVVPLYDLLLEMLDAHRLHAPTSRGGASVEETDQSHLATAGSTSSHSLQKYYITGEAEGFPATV
Procedure, shortened: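 ER-α protein levels measured by in-cell western with SP1 antibody, ratioed to DRAQ5 DNA signal and given as percent of untreated controls. Compounds added at 0.3–0.000003 μM final (eleven semilog points) to adherent MCF-7 cells in stripped serum; exposure 4 or 24 h before fixation.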

MCF-7 cells = assay: Breast Cancer Cell Viability Assay (MCF-7, CellTiter-Glo); format: cell-based; settings: 5 days' compound exposure; for IC50: Homo sapiens, MCF7, 120 h
Procedure, shortened: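 Eleven-point semilog compound series, final 0.3-0.000003 μM, added to overnight-adhered MCF-7 cells (320/well; RPMI, 10% FBS, 20 mM HEPES) for 5 days. Viability read by CellTiter-Glo luminescence, background from medium without cells subtracted, expressed relative to untreated cells.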

Structure (SMILES)	Emax (ER-α) [%]	DC50 (ER-α) [nM]	IC50 (MCF-7 cells) [nM]	MCF7 Viability Assay Max Response (MCF-7 cells)
CC/C(=C(/c1ccc(/C=C/C(=O)O)cc1)c1ccc2[nH]ncc2c1)c1ccc(OC)cc1 [Compound 13, (E)-3-(4-((E)-1-(1H-Indazol-5-yl)-2-(4-methoxyphenyl)but-1-en-1-yl)phenyl)acrylic acid]	≥ 40	≤ 100	≤ 100	++ (++ = a single % value ≧ 40%)
O=C(O)/C=C/c1ccc(/C(=C(/CCF)c2ccc(Cl)cc2Cl)c2ccc3[nH]ncc3c2F)cc1 [Compound 122, (E)-3-(4-((E)-2-(2,4-Dichlorophenyl)-4-fluoro-1-(4-fluoro-1H-indazol-5-yl)but-1-en-1-yl)phenyl)acrylic acid]	≥ 40	≤ 100	≤ 100	++ (++ = a single % value ≧ 40%)
CC(C)C/C(=C(/c1ccc(/C=C/C(=O)O)cc1)c1ccc2[nH]ncc2c1)c1ccc(F)cc1Cl [Compound 63, (E)-3-(4-((E)-2-(2-Chloro-4-fluorophenyl)-1-(1H-indazol-5-yl)-4-methylpent-1-en-1-yl)phenyl)acrylic acid]	≥ 40	≤ 100	≤ 100	++ (++ = a single % value ≧ 40%)
CC/C(=C(/c1ccc(/C=C/C(=O)O)cc1)c1ccc2[nH]ncc2c1)c1ccc(OC)cc1C#N [Compound 144, (E)-3-(4-((E)-2-(2-Cyano-4-methoxyphenyl)-1-(1H-indazol-5-yl)but-1-en-1-yl)phenyl)acrylic acid]	≥ 40	≤ 100	≤ 100	++ (++ = a single % value ≧ 40%)
[2H]C([2H])([2H])C([2H])([2H])/C(=C(/c1ccc(/C=C/C(=O)O)cc1)c1ccc2[nH]ncc2c1)c1ccc(Cl)cc1Cl [Compound 132, (E)-3-(4-((E)-2-(2,4-Dichlorophenyl)-3,3,4,4,4-pentadeutero-1-(1H-indazol-5-yl)but-1-en-1-yl)phenyl)acrylic acid]	≥ 40	≤ 100	≤ 100	++ (++ = a single % value ≧ 40%)
CC/C(=C(/c1ccc(/C=C/C(=O)O)cc1)c1ccc2[nH]ncc2c1)c1ccc(Cl)cc1C(F)(F)F [Compound 114, (E)-3-(4-((E)-2-(4-Chloro-2-(trifluoromethyl)phenyl)-1-(1H-indazol-5-yl)but-1-en-1-yl)phenyl)acrylic acid]	≥ 40	≤ 100	≤ 100	++ (++ = a single % value ≧ 40%)
CC/C(=C(/c1ccc(/C=C/C(=O)O)cc1)c1ccc2[nH]ncc2c1C)c1ccccc1 [Compound 36, (E)-3-(4-((E)-1-(4-Methyl-1H-indazol-5-yl)-2-phenylbut-1-en-1-yl)phenyl)acrylic acid]	≥ 40	≤ 100	≤ 100	++ (++ = a single % value ≧ 40%)
CC/C(=C(/c1ccc(/C=C/C(=O)O)cc1)c1ccc2[nH]ncc2c1)c1c(F)cccc1F [Compound 26, (E)-3-(4-((E)-2-(2,6-Difluorophenyl)-1-(1H-indazol-5-yl)but-1-en-1-yl)phenyl)acrylic acid]	≥ 40	≤ 100	≤ 100	++ (++ = a single % value ≧ 40%)
CCCCOc1cccc(/C(CC)=C(\c2ccc(/C=C/C(=O)O)cc2)c2ccc3[nH]ncc3c2)c1 [Compound 96, (E)-3-(4-((E)-2-(3-Butoxyphenyl)-1-(1H-indazol-5-yl)but-1-en-1-yl)phenyl)acrylic acid]	≥ 40	≤ 100	≤ 100	++ (++ = a single % value ≧ 40%)
CCOC(=O)/C=C/c1ccc(/C(=C(/CC)c2ccc(F)cc2)c2ccc3[nH]ncc3c2)cc1 [Compound 90, (E)-Ethyl 3-(4-((E)-2-(4-fluorophenyl)-1-(1H-indazol-5-yl)but-1-en-1-yl)phenyl)acrylate]	≥ 40	≤ 100	≤ 100	+ (+ = a single % value < 40%)
CC/C(=C(/c1ccc(/C=C/C(=O)O)cc1)c1ccc2[nH]ncc2c1)c1cccc(S(C)(=O)=O)c1 [Compound 133, (E)-3-(4-((E)-1-(1H-Indazol-5-yl)-2-(3-(methylsulfonyl)phenyl)but-1-en-1-yl)phenyl)acrylic acid]	≥ 40	> 100	> 100	+ (+ = a single % value < 40%)

Further lines, with some results ahead:

Emax (ER-α) [%]	DC50 (ER-α) [nM]	IC50 (MCF-7 cells) [nM]	Structure (SMILES)	MCF7 Viability Assay Max Response (MCF-7 cells)
≥ 40	≤ 100	≤ 100	CC/C(=C(/c1ccc(/C=C/C(=O)O)cc1)c1cc(F)c2[nH]ncc2c1)c1ccccc1 [Compound 62, (E)-3-(4-((E)-1-(7-Fluoro-1H-indazol-5-yl)-2-phenylbut-1-en-1-yl)phenyl)acrylic acid]	++ (++ = a single % value ≧ 40%)
≥ 40	≤ 100	≤ 100	O=C(O)/C=C/c1ccc(/C(=C(/CCCl)c2ccccc2)c2ccc3[nH]ncc3c2F)cc1 [Compound 76, (E)-3-(4-((E)-4-Chloro-1-(4-fluoro-1H-indazol-5-yl)-2-phenylbut-1-en-1-yl)phenyl)acrylic acid]	++ (++ = a single % value ≧ 40%)
≥ 40		≤ 100	CC/C(=C(/c1ccc(/C=C/C(=O)O)c(C)c1)c1ccc2[nH]ncc2c1)c1ccccc1 [Compound 101, (E)-3-(4-((E)-1-(1H-Indazol-5-yl)-2-phenylbut-1-en-1-yl)-2-methylphenyl)acrylic acid]	++ (++ = a single % value ≧ 40%)
≥ 40	≤ 100	≤ 100	O=C(O)/C=C/c1ccc(/C(=C(/CCF)c2ccccc2)c2ccc3[nH]ncc3c2)cc1 [Compound 66, (E)-3-(4-((E)-4-Fluoro-1-(1H-indazol-5-yl)-2-phenylbut-1-en-1-yl)phenyl)acrylic acid]	++ (++ = a single % value ≧ 40%)
≥ 40		≤ 100	CC/C(=C(\c1ccc2[nH]ncc2c1)c1ccc(/C=C/C(=O)O)cc1C)c1ccccc1 [Compound 100, (E)-3-(4-((Z)-1-(1H-Indazol-5-yl)-2-phenylbut-1-en-1-yl)-3-methylphenyl)acrylic acid]	++ (++ = a single % value ≧ 40%)
≥ 40	≤ 100	≤ 100	CC/C(=C(/c1ccc(/C=C/C(=O)O)cc1)c1ccc2[nH]ncc2c1)c1ccccc1C(F)(F)F [Compound 19, (E)-3-(4-((E)-1-(1H-Indazol-5-yl)-2-(2-(trifluoromethyl)phenyl)but-1-en-1-yl)phenyl)acrylic acid]	++ (++ = a single % value ≧ 40%)
≥ 40	≤ 100	≤ 100	CC/C(=C(\c1ccc2[nH]ncc2c1)c1ccc(/C=C/C(=O)O)cc1F)c1ccccc1 [Compound 105, (E)-3-(4-((Z)-1-(1H-Indazol-5-yl)-2-phenylbut-1-en-1-yl)-3-fluorophenyl)acrylic acid]	++ (++ = a single % value ≧ 40%)
≥ 40	≤ 100	≤ 100	O=C(O)/C=C/c1ccc(/C(=C(/CC2CCCC2)c2ccccc2)c2ccc3[nH]ncc3c2)cc1 [Compound 60, (E)-3-(4-((E)-3-Cyclopentyl-1-(1H-indazol-5-yl)-2-phenylprop-1-en-1-yl)phenyl)acrylic acid]	++ (++ = a single % value ≧ 40%)
≥ 40	≤ 100	≤ 100	O=C(O)/C=C/c1ccc(/C(=C(\c2ccccc2)C2CCC2)c2ccc3[nH]ncc3c2)cc1 [Compound 84, (E)-3-(4-((E)-2-Cyclobutyl-1-(1H-indazol-5-yl)-2-phenylvinyl)phenyl)acrylic acid]	++ (++ = a single % value ≧ 40%)
≥ 40	≤ 100	≤ 100	CC/C(=C(/c1ccc(/C=C/C(=O)O)cc1)c1ccc2[nH]ncc2c1)c1ccc(O)cc1 [Compound 95, (E)-3-(4-((E)-2-(4-Hydroxyphenyl)-1-(1H-indazol-5-yl)but-1-en-1-yl)phenyl)acrylic acid]	++ (++ = a single % value ≧ 40%)
≥ 40		≤ 100	CC/C(=C(/c1ccc(/C=C/C(=O)O)cc1)c1ccc2[nH]ncc2c1)c1ccc(C#N)cc1 [Compound 45, (E)-3-(4-((E)-2-(4-Cyanophenyl)-1-(1H-indazol-5-yl)but-1-en-1-yl)phenyl)acrylic acid]	++ (++ = a single % value ≧ 40%)
